Assays:
[1] = target: T1, Mps-1 kinase (Homo sapiens, UniProt P33981); assay: Mps-1 kinase assay with 10 μM ATP (TR-FRET)
T1 sequence (P33981 1-857): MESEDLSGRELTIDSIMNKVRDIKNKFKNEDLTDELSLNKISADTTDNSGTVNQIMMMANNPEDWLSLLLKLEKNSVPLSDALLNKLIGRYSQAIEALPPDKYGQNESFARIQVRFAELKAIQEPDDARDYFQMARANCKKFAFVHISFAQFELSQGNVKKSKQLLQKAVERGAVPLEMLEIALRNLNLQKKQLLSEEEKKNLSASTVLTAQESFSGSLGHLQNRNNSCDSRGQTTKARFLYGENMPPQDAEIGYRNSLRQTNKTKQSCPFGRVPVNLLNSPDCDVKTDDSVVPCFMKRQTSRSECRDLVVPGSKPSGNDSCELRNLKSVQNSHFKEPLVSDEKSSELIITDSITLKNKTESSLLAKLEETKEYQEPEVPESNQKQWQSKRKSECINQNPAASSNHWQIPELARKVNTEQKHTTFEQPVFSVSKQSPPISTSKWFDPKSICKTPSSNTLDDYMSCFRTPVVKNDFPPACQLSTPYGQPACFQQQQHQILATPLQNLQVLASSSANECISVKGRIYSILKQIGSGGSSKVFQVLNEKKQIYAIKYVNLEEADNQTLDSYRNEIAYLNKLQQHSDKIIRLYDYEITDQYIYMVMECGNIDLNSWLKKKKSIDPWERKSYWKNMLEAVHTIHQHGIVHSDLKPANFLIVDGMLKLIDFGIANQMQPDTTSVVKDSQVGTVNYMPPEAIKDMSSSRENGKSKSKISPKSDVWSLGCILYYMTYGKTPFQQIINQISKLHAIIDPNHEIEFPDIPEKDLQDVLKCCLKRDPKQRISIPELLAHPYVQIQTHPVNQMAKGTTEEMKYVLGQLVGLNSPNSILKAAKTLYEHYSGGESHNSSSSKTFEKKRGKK

[2] = target: T1, Mps-1 kinase; assay: Mps-1 kinase assay with 2 mM ATP (TR-FRET)

`O=C(NCc1ccc(F)cc1)c1ccc(-c2ccc3nc(Nc4ccc(F)cc4OC(F)F)nn3c2)cc1` [Example 12.63, 4-(2-{[2-(difluoromethoxy)-4-fluorophenyl]amino}-[1,2,4]triazolo[1,5-a]pyridin-6-yl)-N-(4-fluoro-benzyl)benzamide] gave an IC50 [1] of no more than 1 nM and an IC50 [2] of 26 nM.

With `CCNC(=O)c1ccc(Nc2nc3ccc(-c4ccc(C(=O)NCc5ccc(F)cc5)cc4)cn3n2)c(C)c1` [Example 12.64, N-ethyl-4-[(6-{4-[(4-fluoro-benzyl)carbamoyl]phenyl}-[1,2,4]triazolo[1,5-a]pyridin-2-yl)amino]-3-methyl-benzamide] the IC50 [1] was no more than 1 nM and the IC50 [2] was 1.6 nM.

Molecule `Cc1cc(C(N)=O)ccc1Nc1nc2ccc(-c3ccc(C(=O)NCc4ccc(F)cc4)cc3)cn2n1` [Example 12.65, 4-[(6-{4-[(4-fluorobenzyl)-carbamoyl]phenyl}[1,2,4]triazolo [1,5-a]pyridin-2-yl)-amino]-3-methylbenzamide] has an IC50 [1] of no more than 1 nM and an IC50 [2] of no more than 1 nM.

`Cc1cc(C(=O)NCC(F)(F)F)ccc1Nc1nc2ccc(-c3ccc(C(=O)NCc4ccc(F)cc4)cc3)cn2n1` [Example 12.66, 4-[(6-{4-[(4-fluorobenzyl)-carbamoyl]phenyl}[1,2,4]triazolo [1,5-a]pyridin-2-yl)-amino]-3-methyl-N-(2,2,2-trifluoroethyl)benzamide] was tested, and the IC50 [1] was no more than 1 nM and the IC50 [2] was 2 nM.

In the case of `Cc1cc(C(=O)NCCF)ccc1Nc1nc2ccc(-c3ccc(C(=O)NCc4ccc(F)cc4)cc3)cn2n1` [Example 12.67, 4-[(6-{4-[(4-fluorobenzyl)-carbamoyl]phenyl}[1,2,4]triazolo [1,5-a]pyridin-2-yl)-amino]-N-(2-fluoroethyl)-3-methylbenzamide], the IC50 [1] is reported as no more than 1 nM and the IC50 [2] is reported as 5 nM.

In the case of `Cc1cc(S(C)(=O)=O)ccc1Nc1nc2ccc(-c3ccc(C(=O)NCc4ccc(F)cc4)cc3)cn2n1` [Example 12.68, N-(4-fluorobenzyl)-4-(2-{[2-methyl-4-(methylsulfonyl)-phenyl]amino}[1,2,4]triazolo [1,5-a]pyridin-6-yl)-benzamide], the IC50 [1] is reported as no more than 1 nM and the IC50 [2] is reported as 1.9 nM.

`Cc1cc(NS(C)(=O)=O)ccc1Nc1nc2ccc(-c3ccc(C(=O)NCc4ccc(F)cc4)cc3)cn2n1` [Example 12.70, N-(4-fluorobenzyl)-4-[2-({2-methyl-4-[(methylsulfonyl)-amino]phenyl}amino)[1,2,4]triazolo [1,5-a]pyridin-6-yl]-benzamide] gave an IC50 [1] of no more than 1 nM and an IC50 [2] of 9.5 nM.

In the case of `COc1ccc(Nc2nc3ccc(-c4ccc(C(=O)NCc5ccc(F)cc5)cc4)cn3n2)c(C)c1` [Example 12.71, N-(4-fluorobenzyl)-4-{2-[(4-methoxy-2-methylphenyl)-amino][1,2,4]triazolo[1,5-a]pyridin-6-yl}benzamide], the IC50 [1] is reported as no more than 1 nM and the IC50 [2] is reported as 8.8 nM.

For `COc1cc(C(=O)NCC(F)(F)F)ccc1Nc1nc2ccc(-c3ccc(C(=O)NCc4ccc(Cl)cc4)cc3)cn2n1` [Example 12.72, 4-[(6-{4-[(4-chlorobenzyl)-carbamoyl]phenyl}[1,2,4]triazolo [1,5-a]pyridin-2-yl)-amino]-3-methoxy-N-(2,2,2-trifluoroethyl)benzamide], the IC50 [1] was no more than 1 nM and the IC50 [2] was 16 nM.

With `COc1cc(S(C)(=O)=O)ccc1Nc1nc2ccc(-c3ccc(C(=O)NCc4ccc(Cl)cc4)cc3)cn2n1` [Example 12.73, N-(4-chlorobenzyl)-4-(2-{[2-methoxy-4-(methylsulfonyl)-phenyl]amino}[1,2,4]triazolo [1,5-a]pyridin-6-yl)-benzamide] the IC50 [1] was no more than 1 nM and the IC50 [2] was 16 nM.

With `Cc1cc(S(C)(=O)=O)ccc1Nc1nc2ccc(-c3ccc(C(=O)NCc4ccc(Cl)cc4)cc3)cn2n1` [Example 12.74, N-(4-chlorobenzyl)-4-(2-{[2-methyl-4-(methylsulfonyl)-phenyl]amino}[1,2,4]triazolo [1,5-a]pyridin-6-yl)-benzamide] the IC50 [1] was no more than 1 nM and the IC50 [2] was 16 nM.

`COc1cc(S(C)(=O)=O)ccc1Nc1nc2ccc(-c3ccc(C(=O)NCc4ccc(C)cc4)cc3)cn2n1` [Example 12.76, 4-(2-{[2-methoxy-4-(methyl-sulfonyl)phenyl]amino}-[1,2,4]triazolo[1,5-a]pyridin-6-yl)-N-(4-methyl-benzyl)benzamide] was tested, and the IC50 [1] was no more than 1 nM and the IC50 [2] was 7.4 nM.

Work on `Cc1ccc(CNC(=O)c2ccc(-c3ccc4nc(Nc5ccc(S(C)(=O)=O)cc5C)nn4c3)cc2)cc1` [Example 12.77, N-(4-methylbenzyl)-4-(2-{[2-methyl-4-(methylsulfonyl)-phenyl]amino}[1,2,4]triazolo [1,5-a]pyridin-6-yl)-benzamide] yielded an IC50 [1] of no more than 1 nM and an IC50 [2] of 11 nM.

Work on `COc1cc(C(=O)NCC(F)(F)F)ccc1Nc1nc2ccc(-c3ccc(C(=O)NCc4ccc(F)cc4F)cc3)cn2n1` [Example 12.79, 4-[(6-{4-[(2,4-difluoro-benzyl)carbamoyl]phenyl}-[1,2,4]triazolo[1,5-a]pyridin-2-yl)amino]-3-methoxy-N-(2,2,2-trifluoro-ethyl)benzamide] yielded an IC50 [1] of no more than 1 nM and an IC50 [2] of 23 nM.

Molecule `Cc1cc(-c2ccc3nc(Nc4ccc(S(C)(=O)=O)cc4OCC(F)(F)F)nn3c2)ccc1C(=O)NCc1ccc(F)cc1F` [Example 12.80, N-(2,4-difluorobenzyl)-2-methyl-4-(2-{[4-(methyl-sulfonyl)-2-(2,2,2-trifluoro-ethoxy)phenyl]amino}[1,2,4]triazolo[1,5-a]pyridin-6-yl)-benzamide] has an IC50 [1] of no more than 1 nM and an IC50 [2] of 18 nM.

`COc1cc(C(C)(C)O)ccc1Nc1nc2ccc(-c3ccc(C(=O)NCc4ccc(F)cc4)c(OC)c3)cn2n1` [Example 12.81, N-(4-fluorobenzyl)-4-(2-{[4-(2-hydroxypropan-2-yl)-2-methoxyphenyl]amino}-[1,2,4]triazolo[1,5-a]pyridin-6-yl)-2-methoxybenzamide] showed an IC50 [1] of no more than 1 nM and an IC50 [2] of 7.3 nM.

Molecule `COc1cc(S(C)(=N)=O)ccc1Nc1nc2ccc(-c3ccc(NC(=O)Cc4ccc(F)cc4)cc3)cn2n1` (stereo not drawn) [Example 12.82, 2-(4-fluorophenyl)-N-[4-(2-{[2-methoxy-4-(S-methylsulfonimidoyl)phenyl]-amino}[1,2,4]triazolo[1,5-α]pyridin-6-yl)phenyl]acetamide] has an IC50 [1] of no more than 1 nM and an IC50 [2] of no more than 1 nM.

`COc1cc(S(C)(=N)=O)ccc1Nc1nc2ccc(-c3ccc(C(=O)NCc4ccc(F)cc4)cc3)cn2n1` (stereo not drawn) [Example 12.83, N-(4-fluorobenzyl)-4-(2-{[2-methoxy-4-(S-methylsulfonimidoyl)phenyl]-amino}[1,2,4]triazolo[1,5-α]pyridin-6-yl)benzamide] was tested, and the IC50 [1] was no more than 1 nM and the IC50 [2] was 1.8 nM.

With `COc1cc(CO)ccc1Nc1nc2ccc(-c3ccc(NC(=O)Cc4ccc(F)cc4)cc3)cn2n1` [Example 12.84, 2-(4-fluorophenyl)-N-[4-(2-{[4-(hydroxymethyl)-2-methoxyphenyl]amino}-[1,2,4]triazolo[1,5-α]pyridin-6-yl)phenyl]acetamide] the IC50 [1] was no more than 1 nM and the IC50 [2] was no more than 1 nM.

`COc1cc(CO)ccc1Nc1nc2ccc(-c3ccc(C(=O)NCc4ccc(F)cc4)cc3)cn2n1` [Example 12.85, N-(4-fluorobenzyl)-4-(2-{[4-(hydroxymethyl)-2-methoxyphenyl]amino}-[1,2,4]triazolo[1,5-α]pyridin-6-yl)benzamide] showed an IC50 [1] of no more than 1 nM and an IC50 [2] of 2.2 nM.
